Data reported in PubChem BioAssay AID2384 (Southern Research Specialized Biocontainment Screening …, 2010).
Several values for one entry are separate records, joined by “and”; a condition that tells them apart may be missing. Equal entries are not always repeated.

Each compound was assayed on S. typhi GFP reporter counter-screen, fluorescence, 4 h (assay: inhibitors in S. typhi counter-screen strain, dose response, counter-screen for PhoP regulon inhibitor project, fluorescence, 4 h (AID 2384)).
CCCc1nnc(NC(=O)c2cn(CC)c3cc(N4CCN(C)CC4)c(F)cc3c2=O)s1 gave an IC50 of 61.6 µM.
NS(=O)(=O)c1ccc(CNc2ccc3ccccc3n2)cc1 showed an IC50 of 145 µM.
For COc1cccc(NC2=NC3(CCCCC3)N=C(N)N2)c1, the IC50 was 148 µM.
Compound NC(N)=N/N=C/c1ccc(OCc2ccc(Cl)cc2)cc1 has an IC50 of 26.7 µM.
With Cc1ccc(CC(=O)Nc2ncc([N+](=O)[O-])s2)cc1 the IC50 was 78.5 µM.
Compound Cc1c2ccncc2c(C)c2c1[nH]c1ccccc12 has an IC50 of 21.2 µM.
With CCN(CC)CCn1c(=N)n(CC(O)COc2cccc(C)c2)c2ccccc21 (stereo not drawn) the IC50 was 23.3 µM.
CN1CCc2c(sc(NC(=O)c3ccc([N+](=O)[O-])o3)c2C(N)=O)C1 showed an IC50 of 17.1 µM.
For O=C(Nc1cccc([N+](=O)[O-])c1)Nc1cccs1, the IC50 was 38.9 µM.
CCn1cnc2cc(NCc3ccc(Br)cc3)ccc21 was tested, and the IC50 was 138 µM.
Compound c1ccc(Nc2ccnc(Nc3ccccc3)n2)cc1 has an IC50 of 38.9 µM.
CC(=O)NNC(=S)NC(=O)c1ccccc1 showed an IC50 of 18 µM.
In the case of Cc1ccc(NC(=O)CNCc2ccccc2)cc1Br, the IC50 is reported as 43 µM.
CSc1ccccc1NC(=O)CN1CCCCC1C (stereo not drawn) gave an IC50 of 131 µM.
For O=C(N/N=C/c1cc(Br)cc(Br)c1O)c1ccncc1, the IC50 was 45.3 µM.
O=C(Nc1csc(Cl)c1)c1ccccc1 gave an IC50 of 70.6 µM.
Nc1nnc(-c2cccc(Cl)c2Cl)c(N)n1 showed an IC50 of 25.8 µM.
With CCOC(=O)N1CCN(CCC(=O)c2ccc(Br)cc2)CC1 the IC50 was 82.3 µM.
O=C(COc1ccc(Br)cc1CNCCc1ccccc1)NCc1ccccc1 showed an IC50 of 105 µM.
In the case of Nc1[nH]ncc1-c1ccccc1, the IC50 is reported as 48 µM.
Oc1c(I)cc(Cl)c2cccnc12 showed an IC50 of 5.62 µM.
With COc1ccc(Nc2c3ccccc3nc3ccccc23)cc1 the IC50 was 23.7 µM.
For O=C(/C=C/c1cccs1)NC(=S)NNC(=O)c1ccccc1O, the IC50 was 26.1 µM.
O=C(Nc1ccc(-c2nc3ccccc3[nH]2)cc1)c1ccco1 was tested, and the IC50 was 94 µM.
For Cc1cc(Cl)c(OCCCNCc2ccccc2)c(Br)c1, the IC50 was 37.5 µM.
For Cc1cccc2sc(N(CCCN(C)C)C(=O)COc3ccc(Cl)cc3)nc12, the IC50 was 37.6 µM.
Work on N=c1n(CCN2CCCCC2)c2ccccc2n1CC(O)c1ccc(Cl)c(Cl)c1 (stereo not drawn) yielded an IC50 of 19.8 µM.
O=C(N/N=C\C=C\c1ccc([N+](=O)[O-])o1)c1cccs1 showed an IC50 of 11 µM.
Work on O=C(Cn1nc(C(F)F)cc1C(F)F)NNC(=S)Nc1ccc([N+](=O)[O-])cc1 yielded an IC50 of 69.1 µM.
For CN(C)c1ccc(Nc2nc(N)c3ccccc3n2)cc1, the IC50 was 77.7 µM.
With CC(=O)NC(c1ccc(Cl)cc1Cl)c1ccc2cccnc2c1O (stereo not drawn) the IC50 was 39.6 µM.
In the case of O=C1c2ccccc2NC(c2ccc(-c3ccc(Br)cc3)o2)N1O (stereo not drawn), the IC50 is reported as 25.5 µM.
COc1ccccc1Nc1nc(NCc2ccco2)c2ccccc2n1 was tested, and the IC50 was 56.3 µM.
In the case of Clc1ccc(CN2CCc3c([nH]c4ccccc34)C2)cc1Cl, the IC50 is reported as 36.2 µM.
For COc1ccc(C2NCCc3c2[nH]c2ccccc32)cc1COc1ccc(F)cc1 (stereo not drawn), the IC50 was 35.1 µM.
COc1cccc(CNCCc2c[nH]c3ccccc23)c1OCc1ccccc1 gave an IC50 of 89.1 µM.
Work on O=c1cc(-c2ccccc2)cc(-c2ccccc2)n1O yielded an IC50 of 32.3 µM.
Compound COc1cc(/C=C/[N+](=O)[O-])ccc1O has an IC50 of 45 µM.
Work on C#CCOCCOCCOCCNc1nc(N2CCN(C(=O)CCCCCCCCCCNC(=O)Cn3cc(C[C@@H](C)O)nn3)CC2)nc(N2CCN(C(=O)CCCCCCCCCCNC(=O)[C@@H]([C@H](C)CC)n3cc(CCCCCN)nn3)CC2)n1 yielded an IC50 of 141 µM.
Cc1c(CN(C)C)c2c(n1Cc1ccccc1)C(=O)c1ccc(Br)cc1-2 showed an IC50 of 47.2 µM.
CN1CCN(C2Cc3cc(F)ccc3Sc3ccc(Cl)cc32)CC1 (stereo not drawn) gave an IC50 of 34.6 µM.
Work on Cc1ccc2c(c1)C1CN(C)CCC1N2C(=O)COc1ccccc1F (stereo not drawn) yielded an IC50 of 110 µM.
With Clc1cc(Br)ccc1OCCCNCc1ccccc1 the IC50 was 39.3 µM.
In the case of Cc1c(Cl)cccc1Nc1nc(NCCO)c2ccccc2n1, the IC50 is reported as 40.1 µM.
With C=C1c2cccc(O)c2C(O)=C2C(=O)[C@]3(O)C(O)=C(C(N)=O)C(=O)[C@@H](N(C)C)[C@@H]3[C@@H](O)[C@H]12 the IC50 was less than 0.23 µM.
Work on O=C(Nc1nnc(-c2ccco2)o1)c1cccc(Cl)c1 yielded an IC50 of 43.1 µM.
With O=C(NNC(=S)NC(=O)c1ccco1)c1ccc(F)cc1 the IC50 was 130 µM.
Work on Nc1nc(Nc2ccccc2)nc2ccccc12 yielded an IC50 of 42.4 µM.
For O=C(O)c1ccc(N2C(=O)CC(N3C(=O)/C(=C/c4ccc(Cl)cc4)SC3=S)C2=O)cc1 (stereo not drawn), the IC50 was 23.7 µM.
CN(C)CCCN1c2ccccc2Sc2ccc(Cl)cc21 was tested, and the IC50 was 34.3 µM and 31.8 µM.
CSc1ccc2c(c1)N(CCC1CCCCN1C)c1ccccc1S2 (stereo not drawn) gave an IC50 of 37.2 µM.
CC(C)(c1ccccc1)c1ccc(OCCCNCCO)cc1 showed an IC50 of 29 µM.
In the case of CCc1ccc(N2CC(C(=O)N/N=C/c3cc([N+](=O)[O-])ccc3O)CC2=O)cc1 (stereo not drawn), the IC50 is reported as 48.7 µM.
For CC[C@H]1OC(=O)[C@H](C)[C@@H](O[C@H]2C[C@@](C)(OC)[C@@H](O)[C@H](C)O2)[C@H](C)[C@@H](O[C@@H]2O[C@H](C)C[C@H](N(C)C)[C@H]2O)[C@](C)(O)C[C@@H](C)[C@@H]2N[C@@H](COCCOC)O[C@H]([C@H]2C)[C@]1(C)O, the IC50 was 5.52 µM.
With Brc1ccc2c(c1)C(OC1CN3CCC1CC3)c1ccccc1CS2 (stereo not drawn) the IC50 was 31.8 µM.
For O=C(N/N=C/c1ccc([N+](=O)[O-])o1)C1CCCC1, the IC50 was 37 µM.
In the case of CC(C)Oc1ccc(Cc2cnc(N)nc2N)cc1, the IC50 is reported as 33.3 µM.
Work on CCCCCCCCCCCCOC(=O)C[N+](C)(C)C yielded an IC50 of 19.9 µM.
In the case of c1ccc(Sc2cccc3ccccc23)c(CNC2=NCCN2)c1, the IC50 is reported as 40.1 µM.
CCN1CCN(Cc2ccc(NC(=O)c3ccc(C)c(NC(=O)C(=O)c4c[nH]c5ccccc45)c3)cc2C(F)(F)F)CC1 showed an IC50 of 59.3 µM.
C/C(O)=C\c1nc2ccccc2oc1=O was tested, and the IC50 was 41.6 µM.
Compound CN(Cc1ccccc1O)CC1CCCN(CCc2ccc(Cl)cc2)C1 (stereo not drawn) has an IC50 of 16.9 µM.
COc1ccc(CNc2ncnc3c2[nH]c2ccccc23)cc1 was tested, and the IC50 was 150 µM.
C#CCOCCOCCOCCNc1nc(N2CCN(C(=O)C(Cc3ccc(O)cc3)n3cc(C(N)CC(C)C)nn3)CC2)nc(N2CCN(C(=O)C(Cc3cc4ccccc4[nH]3)n3cc(C(N)Cc4ccc(O)cc4)nn3)CC2)n1 (stereo not drawn) gave an IC50 of 37.7 µM.
For O=C(CSc1ccccn1)N/N=C/c1cc([N+](=O)[O-])ccc1O, the IC50 was 40.4 µM.
Work on COc1ccc(-c2cnc(NCc3cc4c(cc3[N+](=O)[O-])OCO4)n2C)cc1 yielded an IC50 of 145 µM.
Compound Nc1nc(Nc2ccc(Cl)cc2)nc2ccccc12 has an IC50 of 17 µM.
With Oc1c(Br)cc(Br)cc1C=Nc1ccc2[nH]ncc2c1 the IC50 was 21.8 µM.
For CCc1ccc(CNCc2ccc(OCC(O)CN(C)Cc3ccccc3)cc2)nc1 (stereo not drawn), the IC50 was 67.6 µM.
Work on CSc1ccc2c(c1)C(N1CCN(C)CC1)Cc1ccccc1S2 (stereo not drawn) yielded an IC50 of 27.5 µM.
COc1cc2c(cc1O)[C@H](Cc1ccc(Oc3cc(C[C@@H]4NCCc5cc(OC)c(O)cc54)ccc3O)cc1)NCC2 showed an IC50 of 64 µM.
Compound Cc1ccccc1C(=O)N/N=C/c1ccc([N+](=O)[O-])s1 has an IC50 of 75.3 µM.
CCCCCCCCCCCCCCCC[n+]1cccc(C(=O)N(CC)CC)c1 gave an IC50 of 18.3 µM.
c1ccc(N2CCN(c3nc4ccccc4[nH]3)CC2)nc1 gave an IC50 of 138 µM.
For CCCCC(=O)NNC(=S)NC(=O)CCC, the IC50 was 92.6 µM.
In the case of O=C(Nc1ccccc1)c1c(O)[nH]c(=S)[nH]c1=O, the IC50 is reported as 84.8 µM.
Work on CC(C)CCC(CCNCc1ccccn1)c1ccc(Cl)cc1 (stereo not drawn) yielded an IC50 of 54.7 µM.
For Nc1cccc2c(=O)c3ccccc3[nH]c12, the IC50 was 37.6 µM.
CN(C)CCCNC(=S)NCC(c1ccc(Cl)cc1Cl)c1c[nH]c2ccccc12 (stereo not drawn) showed an IC50 of 26.4 µM.
Compound C#CCOCCOCCOCCNc1nc(N2CCN(C(=O)[C@H](CCCCN)n3cc([C@@H](N)CC(C)C)nn3)CC2)nc(N2CCN(C(=O)[C@H](Cc3cc4ccccc4[nH]3)n3cc([C@@H](N)Cc4ccc(O)cc4)nn3)CC2)n1 has an IC50 of 26.9 µM.
Oc1ccc(N=Nc2ccc(Br)cc2)c(O)c1 showed an IC50 of 100 µM.
For CC1=NOC(=O)/C1=C/c1ccc(O)cc1, the IC50 was 146 µM.
In the case of COc1ccc(NC2=NC3(CCCCC3)N=C(N)N2)cc1, the IC50 is reported as 138 µM.
With COc1cc(CNCCc2c[nH]c3ccccc23)ccc1OCc1ccccc1F the IC50 was 70.8 µM.
In the case of O=C(N/N=C/c1cc([N+](=O)[O-])ccc1O)C1CC1, the IC50 is reported as 20.2 µM.
For CN1CC(C(=O)c2ccc(Cl)cc2)C(c2ccc(Cl)cc2Cl)C1 (stereo not drawn), the IC50 was 23.6 µM.
O=c1c2ccccc2[nH]c2ccccc12 showed an IC50 of 62 µM.
With CN(C)CCCN(C(=O)c1ccc2c(c1)CCCC2)c1nc2ccc(Cl)cc2s1 the IC50 was 54.1 µM.
